Experiments:
Assay type in all cases: in vivo
[1] = tested on: pigweed (Amaranthus retroflexus); test: Test A preemergence; conditions: for Pigweed plant response rating (0 to 100 scale, 0 is no effect, 100 is complete control): visual injury approx. 10 d
[2] = tested on: ragweed (common ragweed, Ambrosia elatior); test: Test A preemergence; conditions: for Ragweed plant response rating (0 to 100 scale, 0 is no effect, 100 is complete control): visual injury approx. 10 d
Outline: (§1)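 Preemergence soil spray on seeded pots or post-emergence spray on 1–2 leaf plants, in loam–sand blend. Greenhouse ~10 d. Visual rating 0–100 against untreated plants.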

[3] = tested on: barnyardgrass (Echinochloa crus-galli); test: Test A preemergence; conditions: for Barnyardgrass plant response rating (0 to 100 scale, 0 is no effect, 100 is complete control): visual injury approx. 10 d
Outline: as §1

[4] = tested on: ryegrass, Italian (Italian ryegrass, Lolium multiflorum); test: Test A preemergence; conditions: for Ryegrass, Italian plant response rating (0 to 100 scale, 0 is no effect, 100 is complete control): visual injury approx. 10 d
Outline: as §1

Kochia (Kochia scoparia) [5] = test: Test A preemergence; conditions: for Kochia plant response rating (0 to 100 scale, 0 is no effect, 100 is complete control): visual injury approx. 10 d
Outline: as §1

[6] = tested on: giant foxtail (Setaria faberii); test: Test A preemergence; conditions: for Foxtail, Giant plant response rating (0 to 100 scale, 0 is no effect, 100 is complete control): visual injury approx. 10 d
Outline: as §1

[7] = tested on: pigweed (Amaranthus retroflexus); test: Test A postemergence
Outline: as §1

[8] = tested on: Galium (catchweed bedstraw, Galium aparine); test: Test A postemergence
Outline: as §1

[9] = tested on: ragweed (common ragweed, Ambrosia elatior); test: Test A postemergence
Outline: as §1

[10] = tested on: barnyardgrass (Echinochloa crus-galli); test: Test A postemergence; conditions: for Barnyardgrass plant response rating: visual injury rating on 0 to 100 scale (0 no effect, 100 complete control)
Outline: as §1

[11] = tested on: blackgrass (Alopecurus myosuroides); test: Test A postemergence; conditions: for Blackgrass plant response rating: visual injury rating on 0 to 100 scale (0 no effect, 100 complete control)
Outline: as §1

[12] = tested on: wheat (Triticum aestivum); test: Test A postemergence
Outline: as §1

[13] = tested on: ryegrass, Italian (Italian ryegrass, Lolium multiflorum); test: Test A postemergence
Outline: as §1

Kochia (Kochia scoparia) [14] = test: Test A postemergence
Outline: as §1

[15] = tested on: giant foxtail (Setaria faberii); test: Test A postemergence
Outline: as §1

corn (Zea mays) = test: Test A postemergence
Outline: as §1

rice (Oryra sativa) = test: Test B flooded paddy test; conditions: Flood, 0 to 100 scale where 0 is no effect and 100 is complete control, 13 to 15 d
Outline: (§2)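 Response scored visually against untreated controls, 0 = no effect and 100 = complete control, 13–15 d after treatment in the greenhouse. Compounds added to paddy water held 3 cm above soil surface. Treatment given at 2-leaf stage.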

[16] = tested on: barnyardgrass (Echinochloa crus-galli); test: Test B flooded paddy test; conditions: Flood, 0 to 100 scale where 0 is no effect and 100 is complete control, 13 to 15 d
Outline: as §2

[17] = tested on: ducksalad (Heteranthera limosa); test: Test B flooded paddy test; conditions: Flood, 0 to 100 scale where 0 is no effect and 100 is complete control, 13 to 15 d
Outline: as §2

[18] = tested on: sedge, umbrella (small-flower umbrella sedge, Cyperus difformis); test: Test B flooded paddy test; conditions: Flood, 0 to 100 scale where 0 is no effect and 100 is complete control, 13 to 15 d
Outline: as §2

[19] = 125 g ai/ha, preemergence, visual rating after approx. 10 d, 0 to 100 scale where 0 is no effect and 100 is complete control
[20] = 500 g ai/ha, preemergence, 0 to 100 scale, 0 = no effect, 100 = complete control
[21] = 125 g ai/ha, postemergence, visual injury after approximately 10 d, 0 to 100 scale (0 no effect, 100 complete control)
[22] = 500 g ai/ha, postemergence, visual injury, 0 to 100 scale (0 no effect, 100 complete control), approx. 10 d
[23] = 125 g ai/ha, Preemergence, visual injury after approximately 10 d, 0 to 100 scale where 0 is no effect and 100 is complete control
[24] = 125 g ai/ha, postemergence, visual rating after approx. 10 d, 0 to 100 scale (0 no effect, 100 complete control)
[25] = Postemergence, 500 g ai/ha, 0 to 100 scale where 0 is no effect and 100 is complete control
[26] = 125 g ai/ha, postemergence, approx. 10 d
[27] = 125 g ai/ha, preemergence, 0 to 100 scale (0 no effect, 100 complete control)
[28] = 125 g ai/ha, postemergence, visual injury rating on 0 to 100 scale (0 no effect, 100 complete control), approx. 10 d
[29] = 500 g ai/ha, postemergence, 0 to 100 scale, 0 no effect, 100 complete control

O=C1NCC(c2cccc(OC(F)(F)C(F)F)c2)C1C(=O)Nc1ccc(F)cc1F (racemic) [Compound 696]
Plant response rating, Pigweed [1, 19]: 20
Plant response rating, Pigweed [1, 20]: 30
Plant response rating, Ragweed [2, 19]: 0
Plant response rating, Ragweed [2, 20]: 40
Plant response rating, Barnyardgrass [3, 19]: 80
Plant response rating, Barnyardgrass [3, 20]: 90
Plant response rating, Ryegrass, Italian [4, 19]: 30
Plant response rating, Ryegrass, Italian [4, 20]: 60
Plant response rating, Kochia (Kochia (Kochia scoparia) [5]; [19]): 40
Plant response rating, Kochia (Kochia (Kochia scoparia) [5]; [20]): 60
Plant response rating, Foxtail, Giant [6, 19]: 90
Plant response rating, Foxtail, Giant [6, 20]: 90
Plant response rating, Pigweed [7, 21]: 30
Plant response rating, Pigweed [7, 22]: 60
Plant response rating, Galium [8, 21]: 50
Plant response rating, Galium [8, 22]: 70
Plant response rating, Ragweed [9, 21]: 20
Plant response rating, Ragweed [9, 22]: 40
Plant response rating, Barnyardgrass [10, 21]: 80
Plant response rating, Barnyardgrass [10, 22]: 80
Plant response rating, Blackgrass [11, 21]: 30
Plant response rating, Blackgrass [11, 22]: 40
Plant response rating, Wheat [12, 21]: 30
Plant response rating, Wheat [12, 22]: 50
Plant response rating, Ryegrass, Italian [13, 21]: 30
Plant response rating, Ryegrass, Italian [13, 22]: 40
Plant response rating, Kochia (Kochia (Kochia scoparia) [14]; [21]): 30
Plant response rating, Kochia (Kochia (Kochia scoparia) [14]; [22]): 40
Plant response rating, Foxtail, Giant [15, 21]: 80
Plant response rating, Foxtail, Giant [15, 22]: 80
Plant response rating, Corn (corn (Zea mays); [21]): 40
Plant response rating, Corn (corn (Zea mays); [22]): 70
Plant response rating, Rice (rice (Oryra sativa); 500 g ai/ha): 35
Plant response rating, Barnyardgrass ([16]; 500 g ai/ha): 75
Plant response rating, Ducksalad ([17]; 500 g ai/ha): 90
Plant response rating, Sedge, Umbrella ([18]; 500 g ai/ha): 0

O=C1NCC(c2cc(F)ccc2F)C1C(=O)Nc1ccccc1F (racemic) [Compound 544]
Plant response rating, Pigweed [1, 23]: 0
Pigweed plant response rating (0 to 100 scale, 0 is no effect, 100 is complete control) ([1]; Preemergence, 500 g ai/ha): 0
Plant response rating, Ragweed [2, 23]: 0
Ragweed plant response rating (0 to 100 scale, 0 is no effect, 100 is complete control) ([2]; Preemergence, 500 g ai/ha): 0
Plant response rating, Barnyardgrass [3, 23]: 30
Barnyardgrass plant response rating (0 to 100 scale, 0 is no effect, 100 is complete control) ([3]; Preemergence, 500 g ai/ha): 80
Plant response rating, Ryegrass, Italian [4, 23]: 0
Ryegrass, Italian plant response rating (0 to 100 scale, 0 is no effect, 100 is complete control) ([4]; Preemergence, 500 g ai/ha): 0
Plant response rating, Kochia (Kochia (Kochia scoparia) [5]; [23]): 0
Kochia plant response rating (0 to 100 scale, 0 is no effect, 100 is complete control) (Kochia (Kochia scoparia) [5]; Preemergence, 500 g ai/ha): 0
Plant response rating, Foxtail, Giant [6, 23]: 70
Foxtail, Giant plant response rating (0 to 100 scale, 0 is no effect, 100 is complete control) ([6]; Preemergence, 500 g ai/ha): 90
Plant response rating, Pigweed [7, 24]: 0
Plant response rating, Pigweed [7, 25]: 0
Plant response rating, Galium [8, 24]: 0
Plant response rating, Galium [8, 25]: 0
Plant response rating, Ragweed [9, 24]: 0
Plant response rating, Ragweed [9, 25]: 0
Barnyardgrass plant response rating [10, 26]: 20
Plant response rating, Barnyardgrass [10, 25]: 70
Blackgrass plant response rating [11, 26]: 0
Plant response rating, Blackgrass [11, 25]: 0
Plant response rating, Wheat [12, 24]: 0
Plant response rating, Wheat [12, 25]: 0
Plant response rating, Ryegrass, Italian [13, 24]: 0
Plant response rating, Ryegrass, Italian [13, 25]: 0
Plant response rating, Kochia (Kochia (Kochia scoparia) [14]; [24]): 0
Plant response rating, Kochia (Kochia (Kochia scoparia) [14]; [25]): 0
Plant response rating, Foxtail, Giant [15, 24]: 0
Plant response rating, Foxtail, Giant [15, 25]: 60
Plant response rating, Corn (corn (Zea mays); [24]): 0
Plant response rating, Corn (corn (Zea mays); [25]): 20
Plant response rating, Rice (rice (Oryra sativa); 250 g ai/ha): 0
Plant response rating, Barnyardgrass ([16]; 250 g ai/ha): 25
Plant response rating, Ducksalad ([17]; 250 g ai/ha): 45
Plant response rating, Sedge, Umbrella ([18]; 250 g ai/ha): 0

O=C(Nc1cccc(F)c1F)C1C(=S)NCC1c1cccc(C(F)(F)F)c1 (stereo not drawn) [Compound 454]
Plant response rating, Pigweed [1, 27]: 0
Pigweed plant response rating (0 to 100 scale, 0 is no effect, 100 is complete control) ([1]; Preemergence, 500 g ai/ha): 0
Plant response rating, Ragweed [2, 27]: 0
Ragweed plant response rating (0 to 100 scale, 0 is no effect, 100 is complete control) ([2]; Preemergence, 500 g ai/ha): 0
Plant response rating, Barnyardgrass [3, 27]: 70
Barnyardgrass plant response rating (0 to 100 scale, 0 is no effect, 100 is complete control) ([3]; Preemergence, 500 g ai/ha): 80
Plant response rating, Ryegrass, Italian [4, 27]: 0
Ryegrass, Italian plant response rating (0 to 100 scale, 0 is no effect, 100 is complete control) ([4]; Preemergence, 500 g ai/ha): 30
Plant response rating, Kochia (Kochia (Kochia scoparia) [5]; [27]): 0
Kochia plant response rating (0 to 100 scale, 0 is no effect, 100 is complete control) (Kochia (Kochia scoparia) [5]; Preemergence, 500 g ai/ha): 0
Plant response rating, Foxtail, Giant [6, 27]: 80
Foxtail, Giant plant response rating (0 to 100 scale, 0 is no effect, 100 is complete control) ([6]; Preemergence, 500 g ai/ha): 90
Pigweed plant response rating [7, 28]: 0
Plant response rating, Pigweed [7, 29]: 0
Galium plant response rating [8, 28]: 0
Plant response rating, Galium [8, 29]: 30
Ragweed plant response rating [9, 28]: 0
Plant response rating, Ragweed [9, 29]: 0
Barnyardgrass plant response rating [10, 26]: 60
Plant response rating, Barnyardgrass [10, 29]: 80
Blackgrass plant response rating [11, 26]: 0
Plant response rating, Blackgrass [11, 29]: 50
Wheat plant response rating [12, 28]: 20
Plant response rating, Wheat [12, 29]: 40
Ryegrass, Italian plant response rating [13, 28]: 0
Plant response rating, Ryegrass, Italian [13, 29]: 40
Kochia plant response rating (Kochia (Kochia scoparia) [14]; [28]): 0
Plant response rating, Kochia (Kochia (Kochia scoparia) [14]; [29]): 0
Foxtail, Giant plant response rating [15, 28]: 70
Plant response rating, Foxtail, Giant [15, 29]: 80
Corn plant response rating (corn (Zea mays); [28]): 50
Plant response rating, Corn (corn (Zea mays); [29]): 70
Plant response rating, Rice (rice (Oryra sativa); 250 g ai/ha): 15
Plant response rating, Barnyardgrass ([16]; 250 g ai/ha): 40
Plant response rating, Ducksalad ([17]; 250 g ai/ha): 60
Plant response rating, Sedge, Umbrella ([18]; 250 g ai/ha): 0

Cc1cc(C2CNC(=O)C2C(=O)Nc2ccccc2F)cs1 (stereo not drawn) [Compound 630]
Plant response rating, Pigweed [1, 23]: 0
Plant response rating, Pigweed [1, 20]: 0
Plant response rating, Ragweed [2, 23]: 0
Plant response rating, Ragweed [2, 20]: 30
Plant response rating, Barnyardgrass [3, 23]: 90
Plant response rating, Barnyardgrass [3, 20]: 90
Plant response rating, Ryegrass, Italian [4, 23]: 0
Plant response rating, Ryegrass, Italian [4, 20]: 20
Plant response rating, Kochia (Kochia (Kochia scoparia) [5]; [23]): 0
Plant response rating, Kochia (Kochia (Kochia scoparia) [5]; [20]): 50
Plant response rating, Foxtail, Giant [6, 23]: 80
Plant response rating, Foxtail, Giant [6, 20]: 90
Plant response rating, Pigweed [7, 24]: 0
Plant response rating, Pigweed [7, 22]: 0
Plant response rating, Galium [8, 24]: 0
Plant response rating, Galium [8, 22]: 40
Plant response rating, Ragweed [9, 24]: 0
Plant response rating, Ragweed [9, 22]: 0
Plant response rating, Barnyardgrass [10, 24]: 80
Plant response rating, Barnyardgrass [10, 25]: 90
Plant response rating, Blackgrass [11, 24]: 0
Plant response rating, Blackgrass [11, 25]: 20
Plant response rating, Wheat [12, 24]: 0
Plant response rating, Wheat [12, 22]: 20
Plant response rating, Ryegrass, Italian [13, 24]: 0
Plant response rating, Ryegrass, Italian [13, 22]: 0
Plant response rating, Kochia (Kochia (Kochia scoparia) [14]; [24]): 0
Plant response rating, Kochia (Kochia (Kochia scoparia) [14]; [22]): 0
Plant response rating, Foxtail, Giant [15, 24]: 30
Plant response rating, Foxtail, Giant [15, 22]: 30
Plant response rating, Corn (corn (Zea mays); [24]): 0
Plant response rating, Corn (corn (Zea mays); [25]): 20
Plant response rating, Rice (rice (Oryra sativa); 250 g ai/ha): 0
Plant response rating, Barnyardgrass ([16]; 250 g ai/ha): 20
Plant response rating, Ducksalad ([17]; 250 g ai/ha): 95
Plant response rating, Sedge, Umbrella ([18]; 250 g ai/ha): 0

Source: patent US12077503B2, “Substituted cyclic amides and their use as herbicides” (FMC CORPORATION, priority 2015, dated 2024)
